Results on one cell line are retold here after the supplement of paper PMC10307832.

Test in all cases: relative viability (nuclei count vs DMSO), 5 days (fraction); higher = more cells survive
Compound in one test: CN1CCN(CC1)C2=CC(=C(C=C2)NC3=NC=C4C(=N3)N(C5=CC=CC=C5C(=O)N4C)C)OC [XMD8-85]
In short, it runs like this: (§1)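 In 1536-well plates, lung cancer cell lines rested overnight at 37 °C before five library-drug doses (not always all listed), √10 apart, were pinned onto vehicle-anchored plates. Nuclei were counted with MetaXpress from 4× Hoechst images taken after 5 days without medium change. Viability compares treated-well with vehicle-well nuclei as a median over plates, and plates needed control CV below 25% plus at least one doubling to pass.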

Compound in the next test: O=C(O)C(Cc1ccccc1[N+](=O)[O-])=NNc1nc(-c2ccc(Cl)c(Cl)c2)cs1 (mixture of isomers) [4EGI-1]
In short, it runs like this: as §1

Compound in the test “4EGI-1 + Navitoclax”: O=C(O)C(Cc1ccccc1[N+](=O)[O-])=NNc1nc(-c2ccc(Cl)c(Cl)c2)cs1 (mixture of isomers) [4EGI-1] + CC1(C)CCC(c2ccc(Cl)cc2)=C(CN2CCN(c3ccc(C(=O)NS(=O)(=O)c4ccc(N[C@H](CCN5CCOCC5)CSc5ccccc5)c(S(=O)(=O)C(F)(F)F)c4)cc3)CC2)C1 [Navitoclax] (partner 0.5 µM)
In short, it runs like this:
(§2)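 Each reported value is a median over duplicate plates. It expresses relative viability: treated-well nuclei count divided by vehicle-well nuclei count. Lung cancer cell lines in 1536-well plates were dosed by pin tool a day after seeding, alone with one drug or with a fixed anchor-drug dose plus five library-drug doses (not always all listed) in √10 steps, and nuclei were counted after 5 days.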

Compound in the test “XMD8-85 + Trametinib”: CN1CCN(CC1)C2=CC(=C(C=C2)NC3=NC=C4C(=N3)N(C5=CC=CC=C5C(=O)N4C)C)OC [XMD8-85] + CC(=O)Nc1cccc(-n2c(=O)n(C3CC3)c(=O)c3c(Nc4ccc(I)cc4F)n(C)c(=O)c(C)c32)c1 [Trametinib] (partner 0.02 µM)
In short, it runs like this:
as §2

For HARA, the relative viability in the test with XMD8-85 (0.08 µM) came out at 0.95; with XMD8-85 (0.253 µM) it was 0.976; with XMD8-85 (0.8 µM), 0.902; with XMD8-85 (2.53 µM), 1.03; in the test with XMD8-85 (8 µM) it was 0.611; in the test with 4EGI-1 (0.5 µM), 1.07. The relative viability in the test with 4EGI-1 (1.581 µM) turned out to be 1; with 4EGI-1 (5 µM), 1.07; with 4EGI-1 (15.81 µM), 0.765; with 4EGI-1 (50 µM), 0.257; with 4EGI-1 + Navitoclax (first compound 0.5 µM), 1.15; in the test with 4EGI-1 + Navitoclax (first compound 1.581 µM), 1.1. The relative viability amounted to 1.12 in the test with 4EGI-1 + Navitoclax (first compound 5 µM); 1.15 with 4EGI-1 + Navitoclax (first compound 15.81 µM); 0.672 in the test with 4EGI-1 + Navitoclax (first compound 50 µM); 0.9 in the test with XMD8-85 + Trametinib (first compound 0.08 µM); 0.78 in the test with XMD8-85 + Trametinib (first compound 0.253 µM); 0.578 with XMD8-85 + Trametinib (first compound 0.8 µM). Besides, the relative viability with XMD8-85 + Trametinib (first compound 2.53 µM) was found to be 0.21; with XMD8-85 + Trametinib (first compound 8 µM), 0.33.
